Tested on: human retinal pigment epithelial cells (hRPE)
Assay: WST-1 cytotoxicity test of hRPE cells exposed to hydrogen peroxide-induced oxidative stress
Assay type: cell-based
Settings: ARPE-19 cells exposed to H2O2
Procedure: Human ARPE-19 retinal pigment epithelial cells (RPE) were obtained from American Type Culture Collection (USA). The cells were grown to confluency in a standard incubator in appropriate Dulbecco's MEM/Nut MIX F-12 medium (Gibco, UK). Oxidative stress was applied to the cells (1×10^4 cells/well) by using various concentrations of H2O2. Cytotoxicity was evaluated by two cytotoxicity tests, WST-1 test. WST-1 test reagent was purchased from Roche, Basel, Switzerland. WST-1 test is based on the cleavage of the tetrazolium salt WST-1 (4-*3-(4-iodophenyl)-2-(4-nitrophenyl)-2H-5-tetrazolio*-1,3-benzene disulfonate, slightly red) to formazan (dark red) by various mitochondrial dehydrogenase enzymes. The mean optical density values corresponding to the non-treated controls were taken as 100%. The results were expressed as percentages of the optical density of treated vs. untreated controls. Dose-response curves were drawn from the results expressed as mean±standard error of mean (SEM) by Graph Pad Prism software (GraphPad™, San Diego, US) using non-linear regression analysis. […] The statistical significance of the differences between the cultures exposed to H2O2 and tested extracts without or with serum was determined with the Student's two-tailed t-test (GraphPad Prism). […]

For COc1cc(C[C@@H](CO)[C@H](CO)Cc2ccc(O)c(OC)c2)ccc1O [secoisolariciresinol (SECO), secoisolariciresinol], the “protection of hRPE cells against oxidative damage (WST-1 test)” value was “did not protect hRPE cells from oxidative damage”.
